Assay results published in paper PMC12786457, “Studies on the Complexation of Platinum(II) by Some 4-Nitroisothiazoles and the Cytotoxic Activity of the Resulting Complexes” (Molecules, 2025).
“Also recorded” adds a separate entry of the source. Read-outs that look alike come from different tables or passages of the source.

Experiments:
[1] = cited from earlier work
[2] = test system: MCF-7 (breast adenocarcinoma); assay: SRB (sulforhodamine B) viability assay, MCF-7; format: cell-based, human; details: SRB assay
Description: (§1) The cytotoxicity of the complexes C1–C5 was estimated by examining cell viability using the sulforhodamine B assay. […] However, due to the very poor solubility of the most polar complex C5 in acetone, its initial solution had to be prepared in polar N,N-dimethylacetamide (DMA) (see Section 3.7). Cisplatin was used as the reference drug. The results are presented as IC50 (50% inhibitory concentration), i.e., concentrations that reduce cell survival by 50%. The test was conducted on three cancer cell lines and one normal healthy cell line, namely, breast adenocarcinoma (MCF-7), ovarian adenocarcinoma (ES-2), lung adenocarcinoma (A549), and murine embryonic fibroblast (BALB/3T3).
(§2) Three solid tumor cell lines were used in this study: MCF-7 (breast adenocarcinoma), ES-2 (ovarian adenocarcinoma), and A549 (lung adenocarcinoma). The BALB/3T3 (mouse embryonic fibroblast) cell line was used as a comparative nonpathological tissue. All cell lines were purchased from the American Type Culture Collection (ATCC, Rockville, MD, USA). The preparation of cell cultures for cytotoxicity experiments is described in detail in the following article.
(§3) The initial solutions for subsequent dilutions in biological medium were prepared in a similar manner as described previously. […] The complex C5 was dissolved in the dimethylacetamide (DMA). All the initial solutions were prepared ex tempore and then were added to the culture medium 1:9 (v/v) to obtain a stock solution of 1 mg/mL.
(§4) The test was prepared and performed in the same manner as detailed in the following cited works.

[3] = test system: ES-2 (ovarian adenocarcinoma); assay: SRB (sulforhodamine B) viability assay, ES-2; format: cell-based, human
Description: as §1, §2, §3, §4

[4] = test system: A549 (lung adenocarcinoma); assay: SRB (sulforhodamine B) viability assay, A549; format: cell-based, human; details: SRB assay
Description: as §1, §2, §3, §4

[5] = test system: BALB/3T3 (mouse embryonic fibroblast); assay: SRB (sulforhodamine B) viability assay, normal cells BALB/3T3; format: cell-based; details: normoxia, read-out: IC50 ± SD, Normal Cells BALB/3T3, Normoxia
Description: as §1, §2, §3, §4

[6] = TLC Rf as a measure of relative lipophilicity; format: physicochemical; details: silica gel TLC Al foils
Description: Measurement of the melting points (m.p.) of the obtained compounds was performed with the Büchi M560 melting point device (BÜCHI Labortechnik AG, CH-9230 Flawil/SG, Flawil, Switzerland) and was uncorrected. The ESI-MS (electrospray ionization mass spectroscopy) spectra were recorded with the compactTM Bruker Daltonics Electrospray Ionization Quadrupole Time-of-Flight (ESI-Q-TOF) spectrometer (Bruker Daltonics GmbH, Bremen, Germany). The ESI-MS measurements for new compounds were performed in both positive- and negative-ion mode in LC-MS-grade using LC-MS grade methanol as a solvent. ESI-MS spectral analysis and the simulation of the theoretical monoisotopic mass of detected ions were performed using Bruker Compass Data Analysis 4.2 software (Bruker Daltonics GmbH, Bremen, Germany). All ^1H and ^13C-NMR spectra were recorded on the following instruments: Bruker NMR AVANCE III™ 600 MHz spectrometer with Ascend™ technology magnet with a quadruple resonance NMR ‘inverse’ cryoprobe (Bruker Corporation, Billerica, MA, USA) and/or Bruker ARX-300 (300 MHz) spectrometer (Bruker Analytische Messtechnik GmbH, Rheinstetten, Germany). The NMR measurements of samples of the compounds were carried out at room temperature (20–25 °C) using 5 mm tubes in deuterated acetone-d6. NMR chemical shifts were referenced to the solvent signal, i.e., for ^1H-NMR: δ (quintet of residual acetone-d6) = 2.05 ppm and for ^13C-NMR: δ (septet of acetone-d6) = 29.84 ppm. The Nicolet iS50 FT-IR spectrophotometer (Thermo Fisher Scientific Inc., Waltham, MA, USA) was used to record the Attenuated Total Reflectance IR (ATR-FT-IR) spectra (at MIR range 4000–450 cm^−1). Recording of spectra was performed on the diamond crystal surface (32 scans, resolution: 1 cm^−1, measurement temperature: 20–25 °C) with ATR intensity correction in the Laboratory of Elemental Analysis and Structural Research, Faculty of Pharmacy, Wroclaw Medical University. A Fourier transform, Bruker VERTEX 70V vacuum spectrometer equipped with an air-cooled DTGS detector was used to obtain the Far-IR (far-infrared) spectra (below 500 cm^−1) of the Pt(II) complexes. The spectra measurements were conducted with the ATR accessory, such as a diamond ATR crystal, in the resolution of 1 cm^−1 with 64 scans in the Laboratory of Vibrational Spectroscopy of the Faculty of Chemistry at Wrocław University of Science and Technology. No ATR intensity correction was applied to Far-IR spectra. Omnic 9.3.30 and Omnic Specta 2.0 software (Thermo Fisher Scientific Inc.) was used to process and analyze spectra. A double beam U-2800 Spectrophotometer (Hitachi—Science & Technology, Tokyo, Japan) was used to record UV spectra of Pt-complexes (C1 and C2) and reaction rate measurements of the GSH complexes. Dioxane solutions of complexes were used in the following concentrations: c = 2 × 10^−5 M and 3 × 10^−5 M, respectively, for C1 and C2. Measurement of UV spectra was conducted in quartz cuvettes (path length = 10.0 mm) in the range 190–400 nm (sampling interval 1 nm, scan speed 200 nm/min). All UV experiments were performed in the Laboratory of Elemental Analysis and Structural Research, Faculty of Pharmacy, Wroclaw Medical University. Baselines were corrected with pure dioxane as the reference solvent. Thin-layer chromatography (TLC) was used to monitor the progress of the reaction course and determine the purity of the synthesized compounds. Silica gel on TLC Al foils with fluorescent indicator 254 nm (Sigma-Aldrich, Merck Group, Darmstadt, Germany) was used as the stationary phase and chloroform–acetone mixtures (volume ratios 9:1, 7:3, and 1:1) as the eluent. Detection of Pt(II) compounds in the chromatograms was performed using a 0.5% acetone solution of rubeanic acid (dithiooxamide), and organic impurities were detected by observing the plates under UV light at 250 nm. […]

[7] = Solubility in solvents (qualitative); format: physicochemical
[8] = TLC Rf as a measure of relative lipophilicity; format: physicochemical; details: silica gel TLC Al foils; remark: listed apart in the source
[9] = earlier work of the authors, same methodology
[10] = hypoxia, read-out: IC50 ± SD, MCF-7 (Breast), Hypoxia
[11] = normoxia, read-out: IC50 ± SD, MCF-7 (Breast), Normoxia
[12] = hypoxia, read-out: IC50 ± SD, ES-2 (Ovarian), Hypoxia
[13] = normoxia, read-out: IC50 ± SD, ES-2 (Ovarian), Normoxia
[14] = normoxia, read-out: IC50 ± SD, A549 (Lung), Normoxia

In the case of `N.N.O=C([O-])C1(C(=O)[O-])CCC1.[Pt+2]` [Carboplatin], the “Half-time, t1/2 of reaction with GSH” value ([1]; literature value) is listed as 16.7–32.7 h [35].

In the case of `Cn1cc([N+](=O)[O-])cn1.Cn1cc([N+](=O)[O-])cn1.[Cl][Pt][Cl]` [trans-Pt(NO2Pyraz)2Cl2, trans-[PtCl2 (1-methyl-4-nitropyrazole)2]], the “Half-time, t1/2 of reaction with GSH” value [1, 9] is given as 13 min [17].

In the case of `Cc1noc(C)c1[N+](=O)[O-].Cc1noc(C)c1[N+](=O)[O-].[Cl][Pt][Cl]` [trans-Pt(NO2Isoxazol)2Cl2, trans-dichlorobis(3,5-dimethyl-4-nitro-isoxazole)platinum(II)], the “Half-time, t1/2 of reaction with GSH” value [1, 9] is given as 18 min [18].

In the case of `O=C(O)C(=O)O.[NH-][C@@H]1CCCC[C@H]1[NH-].[Pt+2]` [Oxaliplatin], the “Half-time, t1/2 of reaction with GSH” value ([1]; literature value, similar conditions) is listed as 44 min [35].

In the case of `N.N.[Cl][Pt][Cl]` [Cisplatin, cis-diamminodichloroplatinum, reference compound], the IC50 [2, 10] is reported as 9.74 ± 5.84 µM, the IC50 [2, 11] is reported as 14.4 ± 1.4 µM and the IC50 [3, 12] is reported as 6.28 ± 2.19 µM. It also gave an IC50 [3, 13] of 9.85 ± 4.68 µM, an IC50 ([4]; hypoxia, read-out: IC50 ± SD, A549 (Lung), Hypoxia) of 14.8 ± 1.93 µM and an IC50 [4, 14] of 12.5 ± 1.64 µM. It also gave an IC50 [5] of 8.1 ± 5.61 µM.

For `Cc1noc(C)c1[N+](=O)[O-].Cc1noc(C)c1[N+](=O)[O-].[Cl][Pt@SP1][Cl]` [cis-Pt(NO2Isoxazol)2Cl2], the “Half-time, t1/2 of reaction with GSH” value [1, 9] is given as 42 min [18].

For `N.N.[Cl][Pt+2][Cl]` [Transplatin], the “Half-time, t1/2 of reaction with GSH” value ([1]; literature value) is given as 4 min [36].

With “cis-Dichlorobis(3-methyl-4-nitroisothiazole-5-carboxamide)platinum(II) [C5]” the IC50 [2, 10] was 67.3 ± 28.3 µM, the IC50 [2, 11] was 57.6 ± 7.69 µM and the IC50 [3, 12] was 50.1 ± 7.97 µM. The IC50 [3, 13] was 62.5 ± 22.7 µM, the “IC50 ± SD, A549 (Lung), Hypoxia” value ([4]; hypoxia) was “inactive” and the IC50 [4, 14] was 66.2 ± 1.15 µM. For the same compound, the IC50 [5] was 64.2 ± 15.8 µM, the “Rf, Eluent: Chlorofom:Acetone Ratio 1:1 Vol.” value [6] was 0.655 and the “Rf, Eluent: Chlorofom:Acetone Ratio 9:1 Vol.” value [6] was 0.005. The solubility in acetone ([7]; acetone) was “very poorly soluble; also recorded: weakly soluble”, the solubility in acetonitrile ([7]; acetonitrile, relative to acetone) was “slightly better” and the solubility in chloroform ([7]; chloroform) was “practically insoluble”. The “Rf, Eluent: Chlorofom:Acetone Ratio 9:7 Vol.” value [8] was 0.215.

In the case of `Cn1cc([N+](=O)[O-])cn1.Cn1cc([N+](=O)[O-])cn1.[Cl][Pt@SP1][Cl]` [cis-Pt(NO2Pyraz)2Cl2], the “Half-time, t1/2 of reaction with GSH” value [1, 9] is given as 83 min [17].
